Source: US20240245741A1, “EXTRACTION METHOD USING AN AQUEOUS ALKANEDIOL” (Minasolve SAS, priority 2021, published 2024)
Converted amounts (≈) assume the structure as drawn. Like-named read-outs stand apart in the source and are kept apart here. Values belong to the molecule of their own block, whether it stands above or below them.

Columns and labels:
physchem = details: for solubility at 5 min: thermodynamic from solid
Method: All experiments were performed at ambient temperature. Each model substance was weighted into test tubes, and a precise volume of each solvent mixture was added in order to obtain saturated solutions. The test tubes were vortexed for 5 min and subsequently centrifuged (12000 rpm during 15 min at 25° C.). An aliquot of the supernatant was diluted for UV-spectrophotometric assay. Absorbance measurements were made at wavelengths adapted to each studied molecule. High Performance Liquid Chromatography (HPLC-DAD) was used for Rosmarinic Acid (RA) quantification. Determination of Radical Scavenging Capacity was conducted through DPPH assay.
Each experiment was performed in triplicate.
The solubilisation power of aqueous Pentylene Glycol solutions (from 0 to 100% of PG) for five different model substances was compared to that of 80 wt. % aqueous ethanol.
Various mixtures of bio-based PG and bio-based caprylyl glycol (CG) were explored for dissolving hesperidin. The proportion of bio-based caprylyl glycol ranged from 0 to 30%.
Regarding solubility in the ternary mixture of PG/CG/water, six different mixtures out of the monophasic region of the ternary system were prepared (see FIG. 2): Three water-rich solvent mixtures, one with a high percentage of PG, one with a high percentage of CG and one with a similar percentage of all three components. All the alkanediols used in this study were bio-based or “green”.

[1] = Ternary phase diagrams PG/water/lipophilic ingredient (monophasic region); details: with 85% PG, 10% water
[2] = 25 °C, organic solvent or mixture
[3] = aqueous with cosolvent or surfactant or cyclodextrin

Solubility (physchem): completely insoluble
Amount dissolved compared to hexane (physchem; ternary point 4 versus hexane): three times more
SMILES: CC1=C(/C=C/C(C)=C/C=C/C(C)=C/C=C/C=C(C)/C=C/C=C(C)/C=C/C2=C(C)CCCC2(C)C)C(C)(C)CCC1 [B-C, β-carotene]

solubility at 5 min (physchem; 25 °C, aqueous with cosolvent or surfactant or cyclodextrin): 1900 ± 45 µg/mL (≈ 5.16 mM)
solubility at 5 min (physchem; [2]): 5850 ± 310 µg/mL (≈ 15.9 mM)
solubility at 5 min (physchem; 25 °C, water): 0.5 µg/mL (≈ 0.00136 mM)
Solubility compared to 80% ethanol (physchem; 5 min): 1.6 fold
solubility at 5 min (physchem; [3]): 3650 ± 220 µg/mL (≈ 9.91 mM)
solubility at 5 min (physchem; organic solvent or mixture): 7900 µg/mL (≈ 21.4 mM)
SMILES: COc1cc(/C=C/C(=O)CC(=O)/C=C/c2ccc(O)c(OC)c2)ccc1O [CU, Curcumin]

SMILES: O=C(O)c1cc(O)c(O)c(O)c1 [GA, Gallic acid]
Solubility in 70% PG relative to water (factor) (physchem): ~12.4 times
solubility at 5 min (physchem; [2]): 42000 ± 540 µg/mL (≈ 247 mM)
solubility at 5 min (physchem; 25 °C, water): 10500 ± 1100 µg/mL (≈ 61.7 mM)
Solubility in 100% PG compared to that of 70% PG (physchem; 5 min): 32.3%
Solubilization power relative to 80% ethanol (physchem; 5 min): 58.75%
solubility at 5 min (physchem; [3]): 95100 ± 8120 µg/mL (≈ 559 mM)

SMILES: COc1ccc([C@@H]2CC(=O)c3c(O)cc(O[C@@H]4O[C@H](CO[C@@H]5O[C@@H](C)[C@H](O)[C@@H](O)[C@H]5O)[C@@H](O)[C@H](O)[C@H]4O)cc3O2)cc1O [HE, Hesperidin]
Solubilisation power relative to 80% ethanol (physchem; 5% CG in PG versus 80% ethanol): 82.4%
Solubility compared to PG alone (physchem; 5% CG in PG versus PG alone): 5 times
Solubility (physchem; (PG:CG) solution, 1% CG): 0.078 ± 0.005 g/litre of solvent
Solubility (physchem; (PG:CG) solution, 5% CG): 0.11 ± 0.006 g/litre of solvent
Solubility (physchem; (PG:CG) solution, 10% CG): 0.071 ± 0.003 g/litre of solvent
Solubility (physchem; (PG:CG) solution, 20% CG): 0.071 ± 0.007 g/litre of solvent
Solubility (physchem; (PG:CG) solution, 30% CG): 0.06 ± 0.01 g/litre of solvent
Solubility (physchem; solvent 10% PG in water, ambient temperature): 0.013 ± 0.003 g/litre of solvent
Solubility (physchem; solvent 30% PG in water, ambient temperature): 0.177 ± 0.006 g/litre of solvent
Solubility (physchem; solvent 50% PG in water, ambient temperature): 0.218 ± 0.024 g/litre of solvent
Solubility (physchem; solvent 70% PG in water, ambient temperature): 0.19 ± 0.011 g/litre of solvent
Solubility (physchem; solvent 80% EtOH, ambient temperature): 0.13 ± 0.009 g/litre of solvent
Solubility (physchem; solvent 90% PG in water, ambient temperature): 0.118 ± 0.012 g/litre of solvent
Solubility (physchem; solvent 100% H2O, ambient temperature): 0.00 g/litre of solvent
Solubility (physchem; solvent 100% H2O, ambient temperature, listed as He): completely insoluble
Solubility (physchem; solvent 100% PG, ambient temperature): 0.0216 ± 0.002 g/litre of solvent
Solubility (physchem; solvent 100% PG, ambient temperature, listed as Hesperidin): 0.022 ± 0.002 g/litre of solvent
Concentration of natural substance in a saturated solution (physchem; ternary mixture No 1: 64.7% PG, 17.6% CG, 17.7% H2O): 340 ± 30 µg/mL
Concentration of natural substance in a saturated solution (physchem; ternary mixture No 2: 37.5% PG, 31.2% CG, 31.3% H2O): 440 ± 30 µg/mL
Concentration of natural substance in a saturated solution (physchem; ternary mixture No 3: 31.2% PG, 12.5% CG, 56.3% H2O): 460 ± 10 µg/mL
Concentration of natural substance in a saturated solution (physchem; ternary mixture No 4: 32.1% PG, 55.1% CG, 12.8% H2O): 300 ± 30 µg/mL
Concentration of natural substance in a saturated solution (physchem; ternary mixture No 5: 25% PG, 12.5% CG, 62.5% H2O): 400 ± 30 µg/mL
Concentration of natural substance in a saturated solution (physchem; ternary mixture No 6: 16.65% PG, 8.9% CG, 74.45% H2O): 310 ± 10 µg/mL
Concentration relative to 80% ethanol (physchem; ternary mixture No. 3 versus 80% ethanol): 3.6 times

Solubilisation power relative to water (physchem): 27.2 times
Solubilisation relative to water (physchem): 26.8 times
solubility at 5 min (physchem; [2]): 12800 ± 1200 µg/mL (≈ 35.5 mM)
solubility at 5 min (physchem; 25 °C, water): 6600 ± 2400 µg/mL (≈ 18.3 mM)
Solubility relative to solubility in 80% ethanol (physchem; 5 min): 92%
solubility at 5 min (physchem; [3]): 302000 ± 9400 µg/mL (≈ 839 mM)
SMILES: O=C(/C=C/c1ccc(O)c(O)c1)O[C@H](Cc1ccc(O)c(O)c1)C(=O)O [RA, Rosmarinic Acid]

SMILES: C=C(C)[C@H]1CC=C(C)CC1 [limonene]
Proportion in a self-stabilized ternary mixture [1]: 5%
